Measured values from the NIST ThermoML archive (doi:10.1021/je500513b).
Numbers after ± are expanded uncertainties.

Assay: mn = molality of the nth substance listed, in mol/kg
Conditions: 298.15 K, Pendant drop shape, m2 = 0

surface tension liquid-gas: 71.98 ± 16 mN/m
Structure (SMILES): O [water] + CCCCCCCCCCCCCC[N+](C)(C)CCCCCC[N+](C)(C)CCCCCCCCCCCCCC.[Br-].[Br-]
